The values below come from ChEMBL document CHEMBL1123385, “Stereoselectivity of a potent calcium antagonist, 1-benzyl-3-pyrrolidinyl methyl 2,6-dimethyl-4-(m-nitrophenyl)-1,4-dihydropyridine-3,5-dicarboxylate” (J Med Chem, 1986).

The target in data set [1] is Voltage-gated L-type calcium channel (Rattus norvegicus, UniProt P22002+Q02485+P27732). Put plainly: Inhibition of [3H]nitrendipine binding to L-type calcium channel from rat brain cortex homogenate.
The next data set is filed under the species Rattus norvegicus. As to the kind of experiment: Hill coefficient of the compound. To be noted: in vitro.
Another data set deals with Canis familiaris. As to the kind of experiment: The compound was tested for coronary vasodilating activity in anesthetized coronary perfused dogs. Type of data set: functional, Canis lupus familiaris.

A word on the Hill coefficient: it is a measure of the steepness of the concentration-response curve. With `COC(=O)C1=C(C)NC(C)=C(C(=O)OCCN(C)Cc2ccccc2)C1c1cccc([N+](=O)[O-])c1` (racemic) [NICARDIPINE], the Ki in data set [1] worked out at 0.84 nM l-1. For the same compound, the Hill coefficient in the data set filed under Rattus norvegicus is 1.054.

The compound `COC(=O)C1=C(C)NC(C)=C(C(=O)OC)C1c1ccccc1[N+](=O)[O-]` [NIFEDIPINE] displayed a Hill coefficient in the data set listed under Rattus norvegicus of 1.105.

For the compound `CO/C(O)=C1\C(C)=NC(C)=C(C(=O)O[C@H]2CCN(Cc3ccccc3)C2)[C@@H]1c1cccc([N+](=O)[O-])c1.Cl` (racemic), in data set [1], the Ki stood at 49.6 nM l-1. This compound also registered an ED100 in the data set on Canis familiaris of 9.1 µg. The same compound returned a Hill coefficient in the data set listed under Rattus norvegicus of 0.957.

Consider `COC(=O)C1=C(C)NC(C)=C(C(=O)OCCN(C)Cc2ccccc2)[C@@H]1c1cccc([N+](=O)[O-])c1`, for which the Ki in data set [1] came out at 7.11 nM l-1. The Hill coefficient in the data set listed under Rattus norvegicus stood at 1.241.

In the case of `COC(=O)C1=C(C)NC(C)=C(C(=O)OCCN(C)Cc2ccccc2)[C@H]1c1cccc([N+](=O)[O-])c1`, in data set [1], the Ki was determined as 0.499 nM l-1. For the same compound, the Hill coefficient in the data set listed under Rattus norvegicus amounted to 1.286.

In the case of `CO/C(O)=C1\C(C)=NC(C)=C(C(=O)O[C@H]2CCN(Cc3ccccc3)C2)[C@H]1c1cccc([N+](=O)[O-])c1.Cl`, in data set [1], the Ki was 0.205 nM l-1. Further, the ED100 in the data set on Canis familiaris was found to be 0.57 µg. The Hill coefficient in the data set filed under Rattus norvegicus was 1.203.

As to `CO/C(O)=C1\C(C)=NC(C)=C(C(=O)O[C@@H]2CCN(Cc3ccccc3)C2)[C@@H]1c1cccc([N+](=O)[O-])c1.Cl`, the Ki in data set [1] is on record as 14.3 nM l-1. In the data set with Canis familiaris, this compound gave an ED100 of 3.1 µg. Moreover, the Hill coefficient in the data set filed under Rattus norvegicus is 1.143.

In the case of `CO/C(O)=C1\C(C)=NC(C)=C(C(=O)O[C@@H]2CCN(Cc3ccccc3)C2)[C@H]1c1cccc([N+](=O)[O-])c1.Cl`, the Ki in data set [1] worked out at 3.09 nM l-1. This compound also displayed an ED100 in the data set on Canis familiaris of 1.6 µg. The Hill coefficient in the data set filed under Rattus norvegicus was determined as 0.752.
